Data reported in patent US8399214B2 (Evonik Degussa GmbH, priority 2005, dated 2013).
Values joined by “and” are separate entries in the source; they are usually repeats but may differ in a detail not shown here. Equal entries are not always repeated.

System: C. glutamicum M2014
Experiment: Shake flask study in molasses medium with XAD4, amino acid production with DMDS
Format: cell-based
Details: strain 2014, 80 μl DMDS (0.4% v/v), XAD4, 30° C.
Description: Samples were taken from the medium and assayed for amino acid content. […] (AGILENT). A pre-column derivatization of the sample with ortho-phthalaldehyde allowed the quantification of produced amino acids after separation on a Hypersil AA-column (AGILENT).
A shake flask experiment was performed where OM246C was compared to M2014. […] Thus, the production of methionine occurs from the conversion of O-acetyl-homoserine directly to methionine, bypassing homocysteine.

With `CSSC` [DMDS, dimethyl disulfide] the “Gly + Hse” value was 1.0 g/L and 1.4 g/L, the Ile was 0.0 g/L and the Lys was 2.5 g/L. For the same compound, the OD600 was 38 and 30 and the “O—Ac-hse” value was 4.3 g/L and 3.6 g/L.
